Experimental data reported in US20170235917A1, “SYSTEMS AND METHODS FOR MONITORING AND CONTROLLING A CARD[…] OF A SUBJECT” (THE GENERAL HOSPITAL CORPORATION, priority 2014, published 2017).
Where two headings read alike, the source gives them in different places.

Legend:
[1] = range across four pooled subject groups, cited from earlier work
[2] = for 1/τ (inverse time constant of drug distribution and equilibration) / tD (delay): mean ± SD, five piglets
Protocol: Five neonatal Yorkshire Duroc piglets of 10+/−3 d of age weighting 2.4+/−0.6 kg were pre-anesthetized with ketamine (33 mg/kg) and atropine (0.05 mg/kg), intubated, and anesthetized using 1.5-3.0% isoflurane while mechanically ventilated. Core body temperature was kept at 38+/−0.5° C. BP, HR, arterial O2 saturation, end-tidal CO2, fraction of inspired O2, and pulmonary compliance were continuously monitored. HR beyond 250 bpm was captured using the PC-Vet wireless ECG system or direct counting. The animals received intravenous heparin (200 units/kg/h), physiologic saline (10 mL/kg/h), and 10 g/dL of dextrose-water to adjust serum glucose levels using Genie Plus syringe pumps validated for stability of infusion rate. Serum electrolytes, base excess (−6 to +6), pH (7.20-7.45), partial arterial O2 pressure (80-120 mmHg) and partial arterial CO2 pressure (35-45 mmHg), and arterial O2 saturation (90-100%) were maintained in the target ranges using sodium bicarbonate, potassium chloride, lactated Ringer's solution, and ventilatory changes, respectively. Both femoral veins and left femoral artery were cannulated for fluid and drug administration, and arterial BP measurements and blood sampling, respectively. […] The baseline measurements were recorded after a 15-min postsurgical stabilization period, followed by the escalation of dose, and a 15-min washout period after the discontinuation of the medication. […] To deduce the rate of change of the hemodynamic parameters, the data obtained were subdivided into baseline, low dose (0.25 mcg/kg/min), medium dose (0.5 and 0.75 mcg/kg/min) and high dose (1, 1.5 and 2 mcg/kg/min). BP and HR were collected in real time at a sampling rate of 0.2 Hz.

CNC[C@H](O)c1ccc(O)c(O)c1 [epinephrine]
DBP ([1]; epinephrine 020 ng/kg/min): 69-88 mmHg
HR ([1]; epinephrine 020 ng/kg/min): 64-69 bpm
MAP ([1]; epinephrine 020 ng/kg/min): 83-110 mmHg
SBP ([1]; epinephrine 020 ng/kg/min): 112-153 mmHg
SVI ([1]; epinephrine 020 ng/kg/min): 54-65 ml/m^2
DBP ([1]; epinephrine 040 ng/kg/min): 66-83 mmHg
HR ([1]; epinephrine 040 ng/kg/min): 68-73 bpm
MAP ([1]; epinephrine 040 ng/kg/min): 82-106 mmHg
SBP ([1]; epinephrine 040 ng/kg/min): 114-153 mmHg
SVI ([1]; epinephrine 040 ng/kg/min): 55-68 ml/m^2
DBP ([1]; epinephrine 080 ng/kg/min): 62-79 mmHg
HR ([1]; epinephrine 080 ng/kg/min): 71-76 bpm
MAP ([1]; epinephrine 080 ng/kg/min): 83-105 mmHg
SBP ([1]; epinephrine 080 ng/kg/min): 124-158 mmHg
SVI ([1]; epinephrine 080 ng/kg/min): 58-71 ml/m^2
DBP ([1]; epinephrine 120 ng/kg/min): 61-79 mmHg
HR ([1]; epinephrine 120 ng/kg/min): 72-81 bpm
MAP ([1]; epinephrine 120 ng/kg/min): 84-109 mmHg
SBP ([1]; epinephrine 120 ng/kg/min): 132-168 mmHg
SVI ([1]; epinephrine 120 ng/kg/min): 59-74 ml/m^2
DBP ([1]; epinephrine 160 ng/kg/min): 61-80 mmHg
HR ([1]; epinephrine 160 ng/kg/min): 75-79 bpm
MAP ([1]; epinephrine 160 ng/kg/min): 86-109 mmHg
SBP ([1]; epinephrine 160 ng/kg/min): 136-170 mmHg
SVI ([1]; epinephrine 160 ng/kg/min): 59-77 ml/m^2
1/τ (inverse time constant of drug distribution and equilibration) ([2]; X = H (HR)): 4.1e−3 ± 4.5e−3
tD (delay) ([2]; X = R (TPR)): 48.6 ± 17.6 s
1/τ (inverse time constant of drug distribution and equilibration) ([2]; X = δV (SV)): 0.01 ± 0.02
tD (delay) ([2]; X = δV (SV)): 29.1 ± 26.1 s
HR increase as share of its maximum response ([2]; after the first dose escalation (0.25 mcg/kg/min), averaged over five piglets): 55%
HR at which the response starts to saturate ([2]; doses of 1-2 mcg/kg/min, one particular piglet): around 400 bpm
MAP response ([2]; from the low-dose range, averaged over five piglets (FIG. 10)): persistently increases
